Our source for the IC50 values is PubChem BioAssay AID1399 (The Scripps Research Institute Molecular Screening Center, 2008).

Each structure is given as a SMILES string.

What is called IC50 is the concentration that inhibits the measured activity by half.

For this experiment, the target named is Signal transducer and activator of transcription 3 (Homo sapiens) (UniProt P40763). Nature of the experiment: STAT3 reporter inhibitors, potency, dose response, cell-based (AID 1399). The following applies: human cell STAT3 reporter inhibition.
Consider `CC(C)Cn1c(N)c(C(=O)CSc2ccccc2)c(=O)n(C)c1=O`, for which the IC50 was 5.57 µM.

As for `COc1ccc(CC(=O)Nc2cccc(SC)c2)cc1OC`, the IC50 was 6.37 µM.

As to `O=C(COc1ccc2ccccc2c1)Nc1ccncc1`, the IC50 was 6.11 µM.

`Cc1cc(OCC(=O)Nc2ccncc2)ccc1Br`: the IC50 was 6.7 µM.

Consider `O=C(CSc1ccc2ccccc2c1)Nc1ccncc1`, for which the IC50 is 7.66 µM.

With `O=C(NC1CC1)c1cc2c(s1)-c1ccccc1OC2`, the IC50 was 3.83 µM.

For the molecule `CCC(C)NC(=S)Nc1ccc(C(=O)OC)cc1` (centres undefined), the IC50 is 4.35 µM.

With `O=C(Nc1ccc(N2CCN(C(=O)c3ccco3)CC2)c(Cl)c1)c1cc2ccccc2o1`, the IC50 is 8.95 µM.

With `Cc1nc2ccccc2cc1OCc1ccc(F)cc1`, the IC50 was 3.47 µM.

As for `CN1/C(=C\C(=O)C[n+]2ccc(C(=O)c3ccccc3)cc2)C(C)(C)c2ccccc21`, the IC50 is 5.22 µM.

As to `Nc1cc(-c2ccc(Br)cc2)nn1Cc1ccccc1`, the IC50 was 4.05 µM.

Turning to `Cc1ccc(S(=O)(=O)N(C)c2ccc(C(=O)N3CCN(Cc4ccc5c(c4)OCO5)CC3)cc2)cc1`, the IC50 was 6.17 µM.

As for `O=C(Nc1ccc(Oc2ccccc2)cc1)C1CCN(c2c3c(nc4ncnn24)CCC3)CC1`, the IC50 is 6.45 µM.

As for `O=c1c2c(nc3n1CCCCC3)sc1c(O)cccc12`, the IC50 was 7.42 µM.

On to `Cc1cc(C)n(Cc2ccc(NC(=O)c3ccc(COc4ccccc4Br)cc3)cc2)n1`, for which the IC50 was 7.64 µM.

In the case of `O=C(Nc1ccc(Cc2ccncc2)cc1)c1ccc(S(=O)(=O)N2CCOCC2)cc1`, the IC50 is 4.31 µM.

For the molecule `O=C(Nc1cccc(O)c1)C(=O)Nc1ccccn1`, the half-inhibitory concentration (IC50) is 3.7 µM.

Take `C[C@H]1O[C@@H](O[C@H]2[C@@H](O)C[C@H](O[C@H]3[C@@H](O)C[C@H](O[C@H]4CC[C@@]5(C)[C@H](CC[C@@H]6[C@@H]5C[C@@H](O)[C@]5(C)[C@@H](C7=CC(=O)OC7)CC[C@]65O)C4)O[C@@H]3C)O[C@@H]2C)C[C@H](O)[C@@H]1O`: the IC50 is 1.86 µM.

`COc1cc(OC)cc(C(=O)Nc2nnc(NC(=S)Nc3ccccc3)s2)c1`: the IC50 is 3.91 µM.
